Values of other authors in US8883841B2, “Oncogenic ras-specific cytotoxic compound and methods of use thereof” (The Board of Regents of the University of Texas System, priority 2005, dated 2014).

Tested on: wild-type MEF
Settings: Winter-Vann et al., 2005; cited from earlier work

## CCCCCCCCn1cc(CC(N)=O)c2cc(-c3cccc(C)c3)ccc21 [Cysmethynil, 2-[5-(3-methylphenyl)-1-octyl-1H-indol-3-yl]acetamide]
  growth inhibition in wild-type MEF: induce Icmt-dependent growth inhibition
